Experiments:
streptavidin [1] = molecular target: T1, streptavidin (Streptomyces avidinii, UniProt P22629); assay: FRET efficiency and Forster distance of biotin-conjugated probes; assay type: binding; settings: between iFRET probe and streptavidin
Protocol: (§1) The quantum yield of each compound was measured in 0.1 M pH 10.0 phosphate buffer. 4-methyl-umbelliferone (ΦF 0.63) was used as a standard material, tryptophan (ΦF=0.12) was used as an FRET donor to calculate the quantum yield. FRET efficiency was calculated based on the results measured in PBS buffer at pH 7.4, and fluorescence was measured using an LS55 fluorescence spectrometer manufactured by Perkin Elmer.

streptavidin [2] = molecular target: T1, streptavidin; assay: iFRET detection of streptavidin with biotin-conjugated probes; assay type: binding; settings: UV irradiation at 280 nm
From the text: The results of detecting streptavidin using Compounds of Chemical Formulae XXV to XXVIII as probes for iFRET are shown in FIGS. 23 to 26.
(§2) As in FIG. 23 showing the result of using the compound of Chemical Formula XXV as a probe for iFRET, the probe itself emitted low fluorescence (blue line) at 430 nm by UV irradiation at 280 nm; the protein (streptavidin) emitted fluorescence (green line) at 340 nm by UV irradiation at 280 nm.
As in FIG. 24 showing the result of using the compound of Chemical Formula XXVI as a fluorescent probe, the probe itself emitted low fluorescence (blue line) at 460 nm by UV irradiation at 280 nm; the protein (streptavidin) emitted fluorescence (green line) at 340 nm by UV irradiation at 280. […] Further, it was confirmed that the fluorescence increasing rate at the above emission wavelength was 600% or more, indicating production of effective iFRET signals.
Because the compound of Chemical Formula XXVII emitted fluorescence at the longer wavelength than the known iFRET probe, signal-to-noise ratio is […] during real-time cell imaging, thereby providing more clear images.
In order to examine target specificity of the probe having Chemical Formula XXVIII, the probe was exposed to BSA to examine whether iFRET signals were produced by binding of the probe to BSA. […] Therefore, it was confirmed that the biotin-conjugated iFRET fluorescent probe of the present invention selectively binds to streptavidin to produce iFRET signals.

[3] = Quantum yield measurement; assay type: physicochemical; settings: 0.1 M pH 10.0 phosphate buffer, standard 4-methyl-umbelliferone
Protocol: as §1

[4] = Fluorescence of the iFRET probe alone; assay type: physicochemical; settings: for fluorescence emission wavelength of probe alone: excitation / UV irradiation at 280 nm
From the text: After excitation at 260, 280, 340, and 360 nm, the emitted fluorescence spectra were examined. […]
as §2
As in FIG. 24 showing the result of using the compound of Chemical Formula XXVI as a fluorescent probe, the probe itself emitted low fluorescence (blue line) at 460 nm by UV irradiation at 280 nm; the protein (streptavidin) emitted fluorescence (green line) at 340 nm by UV irradiation at 280. […] Further, it was confirmed that the fluorescence increasing rate at the above emission wavelength was 600% or more, indicating production of effective iFRET signals. […]

[5] = Fluorescence characterization of fluorescent molecules (excitation and emission wavelengths); assay type: physicochemical; settings: fluorescent molecule, Table 1
From the text: 1-Naphthylethylenediamine of Chemical Formula I can be effectively detected by LED (light-emitting diode), and used as a fluorescent probe. In addition, because this compound has an excitation wavelength of 340 nm to 380 nm and an emission wavelength of 400 nm to 600 nm, it has longer emission wavelength than the known fluorophores, and therefore, it can be detected as a fluorescent molecule distinct from the cellular autofluorescence.
The excitation and emission wavelengths of the fluorescent molecules of the present invention, that is, the compounds represented by Chemical Formulae I to XXII are described in Table 1, and graphs showing the fluorescent characteristics thereof are given in FIGS. 3 to 15.

[6] = value used for calculation; cited from earlier work

T1 sequence (P22629 25-183): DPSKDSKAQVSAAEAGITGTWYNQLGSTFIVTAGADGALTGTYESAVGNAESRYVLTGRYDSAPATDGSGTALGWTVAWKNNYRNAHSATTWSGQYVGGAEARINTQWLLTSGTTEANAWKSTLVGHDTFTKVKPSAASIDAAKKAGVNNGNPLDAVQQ

Compound | Emission wavelength (nm) [5] [nm] | Excitation wavelength (nm) [5] | further results
O=C(/C=C/c1cc2ccc(O)cc2oc1=O)NCCNC(=O)CCCC[C@@H]1SC[C@@H]2NC(=O)N[C@@H]21 [Chemical Formula XXVII, N-((E)-7-hydroxycoumarin-3-acryl)-N′-(biotinyl)ethylenediamide] | – | – | R0 (Fōrster distance) (streptavidin [1]): 2.161 nm; fluorescence / iFRET signal of mixture of probe and streptavidin (streptavidin [2]): increased fluorescence at 480 nm; Quantum yield (ΦF) [3]: 0.105
O=C(CCCCC1SCC2NC(=O)NC21)NCCNC(=O)Cc1cc(=O)oc2cc(O)ccc12 (centres unmarked) [Chemical Formula XXVI, N-(7-hydroxycoumarin-4-acetyl)-N′-(biotinyl)ethylenediamine] | – | – | fluorescence emission wavelength of probe alone [4]: 460 nm; R0 (Fōrster distance) (streptavidin [1]): 1.675 nm; fluorescence / iFRET signal of mixture of probe and streptavidin (streptavidin [2]): increased fluorescence at 460 nm; fluorescence increasing rate at emission wavelength 460 nm (streptavidin [2]; mixture of probe and streptavidin): ≥ 600%; Quantum yield (ΦF) [3]: 0.7
Cc1ccc2cc(C(=O)O)c(=O)oc2c1 [Chemical Formula XIII] | 450 | 400 nm | –
COC(=O)C1=CN(C)C=C(C(=O)O)C1C=C(C)C (centres unmarked) [Chemical Formula VII, 5-(methoxycarbonyl)-1-methyl-4-(2-methyl-1-propenyl)-1,4-dihydropyridine-3-carboxylic acid] | 450 | 380 nm | –
Cc1cc(=O)oc2cc(O)ccc12 [Chemical Formula XIV] | 450 | 370 nm | –
Cc1cc(=O)oc2cc(O)ccc12 [4-methyl-umbelliferone] | – | – | quantum yield ΦF of standard material / FRET donor [6]: 0.63
COC(=O)C1=C(C)N(Cc2ccccc2)C=CC1(C)C [Chemical Formula V, methyl 1-benzyl-2,4,4-trimethyl-1,4-dihydropyridine-3-carboxylate] | 430 | 330 nm | –
CCOC(=O)Cc1cc(=O)oc2cc(N(C)C)ccc12 [Chemical Formula XX, ethyl 2-(7-(dimethylamino)-2-oxo-2H-chromen-4-yl)acetate] | 490 | 370 nm | –
CCOC(=O)Cc1cc(=O)oc2cc(N(CC)CC)ccc12 [Chemical Formula XXII, ethyl 2-(7-(diethylamino)-2-oxo-2H-chromen-4-yl)acetate] | 450 | 370 nm | –
O=C(CCCC[C@@H]1SC[C@@H]2NC(=O)N[C@@H]21)NCCNc1cccc2ccccc12 [Chemical Formula XXV, N-biotinyl N′-(1-naphthyl)ethylenediamine] | – | – | fluorescence emission wavelength of probe alone [4]: 430 nm; R0 (Fōrster distance) (streptavidin [1]): 1.837 nm; fluorescence / iFRET signal of mixture of probe and streptavidin (streptavidin [2]): increased fluorescence at 430 nm; Quantum yield (ΦF) [3]: 0.7
CN(C)c1ccc2c(CC(=O)O)cc(=O)oc2c1 [Chemical Formula XXI, 2-(7-(dimethylamino)-2-oxo-2H-chromen-4-yl)acetic acid] | 480 | 370 nm | –
COC(=O)CC1C(C(=O)OC)=CN(C)C=C1C(=O)OC [Chemical Formula VIII, dimethyl 4-(2-methoxy-2-oxoethyl)-1-methyl-1,4-dihydropyridine-3,5-dicarboxylate] | 450 | 370 nm | –
CN(C)c1cccc2c(S(=O)(=O)Cl)cccc12 [Chemical Formula XIX] | 520 | 340 nm | –
COC(=O)C1=CN(C)C=C(C(=O)OC)C1C=C(C)C [Chemical Formula VI, dimethyl 1-methyl-4-(2-methyl-1-propenyl)-1,4-dihydropyridine-3,5-dicarboxylate] | 450 | 390 nm | –
COc1ccc2cc(C(=O)O)c(=O)oc2c1 [Chemical Formula XVI] | 390 | 330 nm | –
CCN(CC)c1ccc2cc(C(=O)n3ccnc3)c(=O)oc2c1 [Chemical Formula XVIII] | 470 | 400 nm | –
COC(=O)CCC(NC(=O)C(CC(=O)OC)NC(=O)CCC(=O)NCCNc1cccc2ccccc12)C(=O)N[C@@H](C(=O)NC(CC(=O)OC)C(=O)C(F)(F)F)C(C)C (stereo partly drawn) [Chemical Formula XXXII, N-(1-naphthyl)ethyleneamide-4-butaneamide-Asp(CO2Me)-L-Glu(CO2Me)-L-Val-Asp(CO2Me)-(ketone)-CF3] | – | – | fluorescence emission wavelength of probe [4]: 430 nm
CC(C)(C)OC(=O)NCCNC(=O)/C=C/c1cc2ccc(O)cc2oc1=O [Chemical Formula XI, tert-butyl 2-(3-(7-hydroxy-2-oxo-2H-chromen-3-yl)acrylamido)ethylcarbamate] | 480 | 380-420 nm | –
COC(=O)C1=CN(C)C=CC1(C)C [Chemical Formula II, methyl 1,4,4-trimethyl-1,4-dihydropyridine-3-carboxylate] | 450 | 360 nm | –
N[C@@H](Cc1c[nH]c2ccccc12)C(=O)O [tryptophan] | – | – | quantum yield ΦF of standard material / FRET donor [6]: 0.12
NCCNc1cccc2ccccc12 [Chemical Formula I, 1-naphthylethylenediamine] | 430 | 340 nm | –
CC(C)(C)OC(=O)Nc1ccc2cc(/C=C/C(=O)O)ccc2c1 [Chemical Formula XV] | 450 | 330 nm | –
COC(=O)C1=CN(C)C=C(C(=O)O)C1 [Chemical Formula IV, 5-(methoxycarbonyl)-1-methyl-1,4-dihydropyridine-3-carboxylic acid] | 480 | 390-400 nm | –
COC(=O)/C=C/c1cc2ccc(O)cc2oc1=O [Chemical Formula X, methyl 3-(7-hydroxy-2-oxo-2H-chromen-3-yl)acrylate] | 510 | 430 nm | –
O=C(O)/C=C/c1cc2ccc(O)cc2oc1=O [Chemical Formula IX, 3-(7-hydroxy-2-oxo-2H-chromen-3-yl)acrylic acid] | 480 | 370-380 nm | –
